Measurements as given in patent US20220062296A1, “COMBINATIONS OF GABAA ALPHA 5 AGONISTS AND SV2A INHIBITORS AND METHODS OF USING IN THE TREATMENT OF COGNITIVE IMPAIRMENT” (AGENEBIO, INC., priority 2020, published 2022).

Experiments:
aged-impaired (AI) rats = experiment: Radial Arm Maze (RAM) task with one-hour delay, levetiracetam; assay type: in vivo, rat; conditions: for effective in reducing the number of errors in the radial arm maze: levetiracetam on its own
Description: The effects of levetiracetam on the spatial memory retention of aged-impaired (AI) rats were assessed in a Radial Arm Maze (RAM) behavioral task using vehicle control and five different dosage levels of levetiracetam (1.25 mg/kg/day, 2.5 mg/kg/day, 5 mg/kg/day, 10 mg/kg/day and 20 mg/kg/day). RAM behavioral tasks were performed on ten AI rats. All six treatment conditions were tested on all ten rats, as described above for the MWM test. The RAM apparatus used consisted of eight equidistantly spaced arms. An elevated maze arm (7 cm width×75 cm length) projected from each facet of an octagonal center platform (30 cm diameter, 51.5 cm height). […] A food well (4 cm diameter, 2 cm deep) was located at the distal end of each arm. Froot Loops™ (Kellogg Company) were used as rewards. […] Numerous extra maze cues surrounding the apparatus were also provided. The AI rats were initially subjected to a pre-training test (Chappell et al. Neuropharmacology 37: 481-487, 1998). […] In the habituation phase, rats were familiarized to the maze for an 8-minute session on four consecutive days. In each of these sessions food rewards were scattered on the RAM, initially on the center platform and arms and then progressively confined to the arms. After this habituation phase, a standard training protocol was used, in which a food pellet was located at the end of each arm. Rats received one trial each day for 18 days. Each daily trial terminated when all eight food pellets had been obtained or when either 16 choices were made or 15 minutes had elapsed. After completion of this training phase, a second training phase was carried out in which the memory demand was increased by imposing a brief delay during the trial. At the beginning of each trial, three arms of the eight-arm maze were blocked. Rats were allowed to obtain food on the five arms to which access was permitted during this initial ‘information phase’ of the trial. Rats were then removed from the maze for 60 seconds, during which time the barriers on the maze were removed, thus allowing access to all eight arms. Rats were then placed back onto the center platform and allowed to obtain the remaining food rewards during this ‘retention test’ phase of the trial. The identity and configuration of the blocked arms varied across trials. The number of “errors” the AI rats made during the retention test phase was tracked. An error occurred in the trial if the rats entered an arm from which food had already been retrieved in the pre-delay component of the trial, or if it re-visited an arm in the post-delay session that had already been visited. After completion of the pre-training test, rats were subjected to trials with more extended delay intervals, i.e., a one-hour delay, between the information phase (presentation with some blocked arms) and the retention test (presentation of all arms). During the delay interval, rats remained off to the side of the maze in the testing room, on carts in their individual home cages. […] Injections were given every other day with intervening washout days. Each AI rat was treated with all six conditions within 23 days of testing. To counterbalance any potential bias, drug effect was assessed using ascending-descending dose series, i.e., the dose series was given first in an ascending order and then repeated in a descending order. Therefore, each dose had two determinations. Parametric statistics (paired t-tests) was used to compare the retention test performance of the AI rats in the one-hour delay version of the RAM task in the context of different doses of levetiracetam and vehicle control (see FIG. 3).

[1] = system: reelin in Entorhinal Cortex (EC2); experiment: Reelin mRNA in situ hybridization in entorhinal cortex (EC2); conditions: 10 mg/kg/day for 28 days; vs AI-VEH p=0.033
[2] = system: aged-impaired (AI) Long-Evans rats; experiment: Morris Water Maze (MWM) retention trial, levetiracetam; assay type: in vivo, rat; conditions: for time spent in the target quadrant (percentage of total swimming time): retention trial 24 hours after training
Description: Six aged-impaired (AI) Long-Evans rats (as characterized above) were tested for their memory of new spatial information in the Morris water maze (MWM), under different drug/control treatment conditions (vehicle control and two different dosage levels of levetiracetam). A retention trial was performed after the training trials, as described below. The MWM apparatus consists of a large, circular pool (diameter 1.53 m; height, 0.58 m) filled with water (27° C.) that is made opaque through the addition of non-toxic pigment or some other substance. In the typical “hidden platform” version of the test, rats are trained to find a camouflaged white escape platform (height, 34.5 cm) that is positioned in the center of one quadrant of the maze about 1.0 cm below the water surface. This platform can be retracted to the bottom of the tank or raised to its normal position from outside the maze during behavioral testing. The location of the platform remains constant from trial to trial. Because there are no local cues that mark the position of the platform, the rat's ability to locate it efficiently from any starting position at the perimeter of the pool depends on using information surrounding the maze. The maze is surrounded by black curtains to which white patterns are affixed to provide a configuration of spatial cues. A second platform (height 37.5 cm), with its surface painted black is elevated 2 cm above the water surface during cue training to control for factors unrelated to cognition. The behavior of a rat in the pool is recorded by a camera that is suspended 2.5 m above the center of the pool. The camera is connected to a video tracking system (HVS Image Advanced Tracker VP200) and a PC computer running HVS software developed by Richard Baker of HVS Image, Hampton, UK. […] On each training trial, the rat was released in the maze from one of four equally spaced starting positions around the perimeter of the pool. […] In the retention trial, the time the AI rats spent swimming in the target quadrant is measured and further plotted as a percentage of total swimming time. […]

**Q.** How did the “effective doses of levetiracetam in the animal model” value (aged-impaired (AI) rats; AI rats) turn out when `CC[C@@H](C(N)=O)N1CCCC1=O` [levetiracetam, (2S)-2-(2-oxopyrrolidin-1-yl)butanamide] was run?
**A.** 5 to 10 mg/kg

**Q.** What about the “average no. of errors ± standard error of the mean (SEM)” value (aged-impaired (AI) rats; levetiracetam 5 mg/kg/day i.p., one-hour delay, p=0.057 vs vehicle) of the same compound?
**A.** 0.75±0.32

**Q.** And the “average no. of errors ± SEM” value (aged-impaired (AI) rats; levetiracetam 10 mg/kg/day i.p., one-hour delay, p=0.042 vs vehicle)?
**A.** 0.80±0.27

**Q.** What about the “performance of AI rats in the radial maze task” value (aged-impaired (AI) rats; levetiracetam 20 mg/kg) of the same compound?
**A.** fails to improve the performance

**Q.** And the “effective in reducing the number of errors in the radial arm maze” value (aged-impaired (AI) rats; 1.25 mg/kg)?
**A.** not at 1.25 mg/kg or 2.5 mg/kg

**Q.** And the “effective in reducing the number of errors in the radial arm maze” value (aged-impaired (AI) rats; 2.5 mg/kg)?
**A.** not at 1.25 mg/kg or 2.5 mg/kg

**Q.** And the “reelin mRNA expression in the lateral entorhinal cortex” value [1]?
**A.** significantly increased the expression of reelin

**Q.** And the “time spent in the target quadrant (percentage of total swimming time)” value ([2]; levetiracetam 5 mg/kg/day i.p., vs vehicle)?
**A.** did not significantly improve

**Q.** And the “time spent in the target annulus” value ([2]; levetiracetam 10 mg/kg/day i.p., retention trial)?
**A.** effectiveness of the 10 mg/kg/day levetiracetam treatment was also seen

**Q.** What about the “time spent in the target quadrant (percentage of total swimming time)” value ([2]; levetiracetam 10 mg/kg/day i.p.) of the same compound?
**A.** approximately 35%
